Values quoted from earlier work, collected in paper PMC11046985 (Neuro-Oncology Advances, 2024).

Columns and labels:
[1] = set-up: method as in earlier work; conditions: erlotinib increased from 150 to 600 mg; cited from earlier work
[2] = daily administration, patients with brain tumors; cited from earlier work

In the case of `C#Cc1cccc(Nc2ncnc3cc(OCCOC)c(OCCOC)cc23)c1` [erlotinib], the “Increase of area under the curve estimation in the CSF” value [1] is given as 24%, the “Increase of area under the curve estimation in the plasma” value [1] is given as 2% and the “Therapeutic levels in cerebrospinal fluid (CSF)” value [2] is given as “did not appear to reach therapeutic levels”.

In the case of `COc1cc2ncnc(Nc3ccc(F)c(Cl)c3)c2cc1OCCCN1CCOCC1` [gefitinib], the “Therapeutic levels in cerebrospinal fluid (CSF)” value [2] is listed as “did not appear to reach therapeutic levels”.
